# Patent publication EP2068894B1, “USE OF CIS-RHENIUM (III) DI[…] FOR POTENTIATING THE A[…] OF PLATINIUM COMPLEXES” (SOCIETE DE CO[…] RECHERCHES THERAPEUTIQUES, priority 2006, dated 2007)
# Legend:
# Format in all cases: in vivo, Wistar rats
# [1] = tested on: tumor carcinoma Guerink (T8) cells; test: Tumor growth in rats inoculated with tumor carcinoma Guerink (T8) cells; settings: for Weight of isolated tumors: day 21 after tumor cells inoculation, cisplatin 8 mg/kg i.p. single on day 9, Re2 7µM/kg i.p. in liposome forms every 2 days from day 3 to day 21; for tumor growth / measured tumor volumes: in comparison to control group, volumes assessed from day 7
# Description: (§1) Wistar rats weighting 100-120 g were inoculated by tumor carcinoma Guerink (T8) cells (Experimental Oncology, 2003, Vol. 25, pp64-68). The cells were taken in the Institute of Oncology and Experimental Pathology by R.E.Kavetskiy (Kiev). The single intraperitoneal administration of Cisplatin at the dose of 8 mg/kg was made on the 9 day after the tumor inoculation according to the method disclosed by Taylor S.K. in Medical Hypothesis 2003; 60; n°1, pp 89-93. The intraperitoneal administration of the Re2 at the dose of 7µM/kg according to the schema of antioxidant therapy [Meerson F.Z. et al. Pat. Physiol. and Exp. Therap.(Rus) 1983;N5:25-9] in liposome forms [Sktemenko et al. Ukr.Biokhim.Journal (Ukr) 2002;74,N°6:38-43] began on the 3 day after the inoculation of the tumor cells and was repeated every 2 days until day 21. Body weights were measured from day 2 after tumor inoculation, the volume of tumors were assessed from the day 7. On the day 21 animals were sacrified under chlorophormium anesthesia and the tumors were isolated and weighted. Concentrations of hemoglobin (Hb) and quantity of red blood cells (RBC) were measured according to the method described by Chevary et al. in Laboratornoe delo (Rus) 1991;N°10:9-13
# (§2) Four groups of 15 animals in each were compared: control group; group with introduction of cisplatin; group with introduction of Re2; and group with introduction of cisplatin together with Re2. Wilcoxon non parametric tests were used to compare the tumor volumes according to the absence of treatment and each group of treatment or between 2 treated groups. Growth of the tumors in control group was very rapid and reached […] and occupied approximately 1/3 of the animal weight. Dynamics of tumor growth is represented on the Figure 1.
# RBC = test: Morphological forms of red blood cells in blood of tumor-bearing rats; settings: day 21 after tumor cells inoculation; for Damaged RBC / Discocytes / Echinocytes: morphological forms of RBC in blood
# Description: as §1, §2
# [2] = Hemoglobin concentration in blood of tumor-bearing rats; settings: for concentration of Hb: blood, day 21 after tumor cells inoculation, cisplatin 8 mg/kg i.p. day 9, Re2 7µM/kg i.p. every 2 days from day 3
# Description: as §1, §2
Molecule,Weight of isolated tumors [1] [g],tumor growth / measured tumor volumes [1],Damaged RBC (RBC) [%],Discocytes (RBC) [%],Echinocytes (RBC) [%],concentration of Hb [2] [g/L],"hemoglobin, result in words ([2]; in comparison to control group, day 21)","morphological picture of RBC, result in words (RBC)"
N.N.[Cl][Pt][Cl] [cisplatin],9.88 ± 9.90,significant decrease in measured tumor volumes,28.65 ± 3.98,46.36 ± 3.18,24.99 ± 3.84,129.49 ± 12.43,significant increase in hemoglobin,
cis-[Re2(AdCOO)2Cl4].2CH3CN,38.27 ± 16.77,did not prevent tumor growth but caused a little delay in progression of growth,21.53 ± 2.34,56.33 ± 4.32,22.14 ± 2.16,72.02 ± 11.12,,supported quantities of discocytes and echinocytes on a rather high level
